The results in this text go back to patent US9492365B2, “Use of caftaric acid and derivatives in food supplement for regulating skin pigmentation” (Nestec S.A., priority 2010, dated 2016).

The subject of one data set is HDF. Put plainly: Highest non cytotoxic concentration on HDF. The note with it: HDF cells. Format: cell-based.
In another data set the test system is HPEK. Put plainly: Highest non cytotoxic concentration on HPEK. In kind it is cell-based, human. The note with it: HPEK cells.
The test system of a further data set is B16 murine melanocytes. Put plainly: Production of melanin by B16 murine melanocyte cell line. In kind it is cell-based. The following applies: B16 melanocytes treated for 72 hours, presence or absence of NDP-MSH; relative to control (FIG. 1); Kojic acid at 400 μg/mL. The protocol: In order to evaluate the potential beneficial effect of ingredients towards skin de- or pro-pigmentation we used 2D culture of murine melanocytes (B16) and we performed 2 tests: 1—assessment of melanin production and 2—assessment of tyrosinase production. 1. The cell culture conditions. • B16 cells were cultured in DMEM 1 g/L glucose without phenol red supplemented with 10% foetal calf serum, in a humidified chamber at 37° C. and containing 5% CO2. 2. The production of melanin by B16 murine melanocyte cell line. • Cells were incubated with the selected ingredients or the test references (Kojic acid at 400 μg/mL) for 72 hours, in the presence or absence of NDP-MSH an analog of MSH. The total quantity of melanin (extracellular and intracellular) was evaluated by measurement of the optical density at 405 nm of each sample against melanin standards in presence or in absence of NDP-MSH.

A further data set concerns tyrosinase. Put plainly: Production of tyrosinase by B16 murine melanocyte cell line (immunolabeling). Format: cell-based. The following applies: B16 melanocytes, 48 hours, immunolabeling (FIG. 2). The protocol:
In order to evaluate the potential beneficial effect of ingredients towards skin de- or pro-pigmentation we used 2D culture of murine melanocytes (B16) and we performed 2 tests: 1—assessment of melanin production and 2—assessment of tyrosinase production. 1. The cell culture conditions. • B16 cells were cultured in DMEM 1 g/L glucose without phenol red supplemented with 10% foetal calf serum, in a humidified chamber at 37° C. and containing 5% CO2. 3. The production of tyrosinase by B16 murine melanocyte cell line. • Cells were incubated with the selected ingredients or the test references (Kojic acid at 400 μg/mL) for 48 hours. The production of tyrosinase was evaluated by immunolabeling.

In the next data set the test system is filaggrin. In words: Synthesis of filaggrin by human epidermal keratinocytes (immunolabeling). The following applies: human primary epidermal keratinocytes, 144 hours. Format: cell-based. The procedure: The potential beneficial effect of the Extracts of Example 1 towards skin barrier function and skin hydration was evaluated by using 2D culture of human primary epidermal keratinocytes and we assessed their synthesis of filaggrin. Human epidermal keratinocytes were cultured in control keratinocytes-SFM medium, in a humidified chamber at 37° C. and containing 5% CO2. Cells were incubated with the selected ingredients or the test references (CaCl2 at 1.5 mM) for 144 hours. The production of filaggrin by was evaluated by immunolabeling.

SMILES strings stand for the structures.

For `O=C(/C=C/c1ccc(O)c(O)c1)O[C@@H](C(=O)O)[C@@H](O)C(=O)O` [Caftaric acid], the “Highest non cytotoxic conc. on HDF” value with HDF is on record as 1 mM. Moreover, the “Highest non cytotoxic conc. on HPEK” value with HPEK worked out at 1 mM. In addition, the Melanin production result in the data set with B16 murine melanocytes is “decreased the production of melanin in vitro, more efficiently than the tested chicory extract MS-70”. The Production of tyrosinase result in the data set on tyrosinase is “decreased by these ingredients but to a limited extent”. For the same compound, the Filaggrin production result in the data set on filaggrin is listed as “increased filaggrin production”.
Take `O=c1cc(CO)occ1O` [Kojic acid, reference compound]: in the data set on B16 murine melanocytes, the Melanin production result is on record as “decrease in melanin production”.
